From patent US20250281523A1, “SULFATED GLYCOSAMINOGLYCAN COMPOUNDS, METHODS, AND USES THEREOF” (California Institute of Technology, priority 2024, published 2025)

What was measured:
FGF2 = molecular target: T1, FGF2 (Homo sapiens, UniProt P09038); assay: HS tetrasaccharide microarray binding assay, FGF2; settings: glycan microarray; for relative binding of FGF2: compound 50 μM, normalized to the compound with greatest binding
T1 construct: purchased Sino Biological
Experimental: (§1) Heparan sulfate tetrasaccharide microarray fabrication. HS oligosaccharides were dissolved in sodium phosphate buffer (pH 8.5, 50 mM) in 9 concentrations: 200 μM, 100 μM, 50 μM, 25 μM, 12.5 μM, 6.25 μM, 3.13 μM, 1.57 μM, 0.79 μM. The robotic arrayer SX (from Scienion, Berlin, Germany) delivered 414 pL of the solution containing oligosaccharides (9 spots per concentration) to the array slides using dispensing nozzle PDC80, P-2040, under ˜50% relative humidity at 20° C. […] The slides were incubated in a chamber with saturated (NH4)2SO4 solution (81% relative humidity) for 24 h at 20° C., and unreacted HS oligosaccharides were removed from the slides by rinsing with deionized water. The remaining N-hydroxysuccinimide (NHS) ester groups were blocked by placing slides in a solution containing 50 mM ethanolamine in PBST (137 mM NaCl, 13 mM Na2HPO4, 1.6 mM NaH2PO4, 2.7 mM KCl, 0.010% Tween-20) at 50° C. for 1.5 h. Slides were rinsed several times with deionized water, dried by centrifugation, and stored before use.
(§2) HS tetrasaccharide microarray binding assay and array slide processing. The slide was blocked with 10% BSA in TBST (4.0 mL) with gentle rocking at RT for 1 h, followed by submerging in TBST. This condition was empirically determined to reduce nonspecific binding of proteins to the microarray and to provide optimal signal-to-noise ratios. Next, 5.0 μL of the primary detection protein ([…], 0.50 μg/mL) solution was transferred to 2.5 mL of TBST w/1% BSA in a chamber and the slide was incubated with gentle shaking for 1 h at RT. The slide was then washed two times for 5 min each in TBST (4.0 mL) while gently rocking. After the washes, the slide was incubated with the appropriate biotinylated antibody ([…], 0.50 μg/mL) in 1% BSA in TBST solution (3.0 mL) with gentle rocking for 1 h. The slide was then washed two times for 5 min in TBST (5.0 mL) while gently rocking. Next, the slide was incubated with 4.0 mL of Alexa Fluor 647-conjugated streptavidin detection solution (1.0 μg/mL in TBST w/1% BSA) in the dark with gentle rocking for 1 h, washed with TBST (5.0 mL, two times) followed by PBS (45 mL, two times) and ddH2O (45 mL, two times), and then dried under a gentle stream of 0.2 micron-filtered air. For his-tagged FGF2, detection was accomplished with an AF647-labeled anti-his antibody. All incubations and washes were carried out at RT unless otherwise noted. The microarray was scanned and analyzed at 647 nm using an Agilent G2565CA Microarray Scanner, and fluorescence quantification was performed using ImageJ software with correction for local background. To ensure accurate signal quantification, the average signal intensity was calculated over a fixed area for all spots. Results were plotted with Prism 9 software at a single concentration as background corrected fluorescence values normalized to the compound with the highest signal. Bar graphs represent the mean±SD for each compound (50 μM) in nonuplicate. Each experiment was performed 2-3 times. Heat maps were generated in Excel with columns sorted by sulfation status of the amino positions and rows sorted by sulfation status of the 2-O- and 6-O-hydroxyl groups.

FGF4 = molecular target: T2, FGF4 (Homo sapiens, UniProt P08620); assay: HS tetrasaccharide microarray binding assay, FGF4; settings: glycan microarray, compound 50 μM, normalized to the compound with greatest binding
T2 construct: purchased Peprotech
T2 sequence (P08620 31-206): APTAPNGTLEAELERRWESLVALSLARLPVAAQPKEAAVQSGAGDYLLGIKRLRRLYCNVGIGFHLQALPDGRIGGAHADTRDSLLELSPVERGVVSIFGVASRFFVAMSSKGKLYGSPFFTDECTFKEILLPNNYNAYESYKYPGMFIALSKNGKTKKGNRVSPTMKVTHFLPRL
Experimental: as §1, §2

CXCL8 (interleukin-8) = molecular target: T3, CXCL8 (interleukin-8) (Homo sapiens, UniProt P10145); assay: HS tetrasaccharide microarray binding assay, CXCL8; settings: glycan microarray, compound 50 μM, normalized to the compound with greatest binding
T3 construct: recombinant human IL-8 (CXCL8) (77 a.a.) (>95% purity); purchased Peprotech
T3 sequence (P10145 23-99 limits assumed): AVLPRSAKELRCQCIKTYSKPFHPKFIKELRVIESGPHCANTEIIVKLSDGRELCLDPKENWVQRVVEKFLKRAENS
Experimental: as §1, §2

T1 sequence (P09038 143-288): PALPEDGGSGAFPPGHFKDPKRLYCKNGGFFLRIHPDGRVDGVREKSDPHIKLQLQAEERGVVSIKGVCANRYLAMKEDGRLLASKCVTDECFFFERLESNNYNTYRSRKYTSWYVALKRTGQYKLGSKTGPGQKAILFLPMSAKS

Row | Substance | relative binding of FGF2 (FGF2) [%] | relative binding of FGF4 (FGF4) [%] | FGF2 binding (in words) (FGF2) | relative binding of CXCL8 (CXCL8 (interleukin-8)) [%]
1 | GlcNAc6S-IdoA2S-GlcNAc6S-IdoA2S-R [Compound 61] | 2 |  |  | 
2 | GlcNAc6S-IdoA2S-GlcNS6S-IdoA2S-R [Compound 62] | 28 | 27 |  | 
3 | GlcNAc6S-IdoA2S-GlcNS6S-IdoA-R [Compound 58] |  | 10 | abolished FGF2 binding | 
4 | GlcNAc6S-IdoA2S-GlcNS-IdoA-R [Compound 42] |  |  | abolished FGF2 binding | 
5 | GlcNAc-IdoA2S-GlcNS6S-IdoA2S-R [Compound 46] |  | 32 |  | 47
6 | GlcNAc-IdoA2S-GlcNS6S-IdoA-R [Compound 34] |  |  | abolished FGF2 binding | 
7 | GlcNAc-IdoA2S-GlcNS-IdoA2S-R [Compound 26] |  |  |  | 43
8 | GlcNAc-IdoA2S-GlcNS-IdoA-R [Compound 14] |  |  | abolished FGF2 binding | 
9 | GlcNS6S-IdoA2S-GlcNAc6S-IdoA2S-R [Compound 63] | 70 | 100 |  | 75
10 | GlcNS6S-IdoA2S-GlcNAc6S-IdoA-R [Compound 59] |  | 83 |  | 53
11 | GlcNS6S-IdoA2S-GlcNAc-IdoA2S-R [Compound 55] |  | 43 |  | 
12 | GlcNS6S-IdoA2S-GlcNAc-IdoA-R [Compound 43] |  | 16 |  | 
13 | GlcNS6S-IdoA2S-GlcNS6S-IdoA2S-R [Compound 64] | 100 | 81 |  | 
14 | GlcNS6S-IdoA2S-GlcNS6S-IdoA-R [Compound 60] | 39 | 38 |  | 43
15 | GlcNS6S-IdoA2S-GlcNS-IdoA2S-R [Compound 56] | 63 | 56 |  | 
16 | GlcNS6S-IdoA-GlcNAc6S-IdoA2S-R [Compound 51] | 3 | 67 | abolished FGF2 binding | 47

Row | Substance | relative binding of FGF2 (FGF2) [%] | relative binding of FGF4 (FGF4) [%] | FGF2 binding (in words) (FGF2) | relative binding of CXCL8 (CXCL8 (interleukin-8)) [%]
17 | GlcNS6S-IdoA-GlcNAc6S-IdoA-R [Compound 39] | 2 | 43 |  | 17
18 | GlcNS6S-IdoA-GlcNAc-IdoA2S-R [Compound 31] |  |  | abolished FGF2 binding | 
19 | GlcNS6S-IdoA-GlcNS6S-IdoA2S-R [Compound 52] | 45 |  |  | 43
20 | GlcNS6S-IdoA-GlcNS6S-IdoA-R [Compound 40] | 3 | 52 |  | 
21 | GlcNS-IdoA2S-GlcNAc6S-IdoA2S-R [Compound 47] |  | 95 |  | 100
22 | GlcNS-IdoA2S-GlcNAc6S-IdoA-R [Compound 35] | 38 | 44 |  | 33
23 | GlcNS-IdoA2S-GlcNAc-IdoA2S-R [Compound 27] |  | 35 |  | 25
24 | GlcNS-IdoA2S-GlcNAc-IdoA-R [Compound 15] |  | 16 |  | 
25 | GlcNS-IdoA2S-GlcNS6S-IdoA2S-R [Compound 48] | 77 | 49 |  | 61
26 | GlcNS-IdoA2S-GlcNS6S-IdoA-R [Compound 36] |  |  |  | 49
27 | GlcNS-IdoA2S-GlcNS-IdoA2S-R [Compound 28] |  | 42 |  | 63
28 | GlcNS-IdoA-GlcNAc6S-IdoA2S-R [Compound 23] | 2 |  | abolished FGF2 binding | 29
29 | GlcNS-IdoA-GlcNAc6S-IdoA-R [Compound 11] | 0.7 |  |  | 3.3
30 | GlcNS-IdoA-GlcNAc-IdoA2S-R [Compound 7] |  |  | abolished FGF2 binding | 
31 | GlcNS-IdoA-GlcNS6S-IdoA2S-R [Compound 24] |  |  |  | 63
